Results as given in the supplement of paper PMC10307832.

Tests used:
Assay in all cases: relative viability (nuclei count vs DMSO), 5 days (fraction); higher = more cells survive
XMD14-99 + Phenformin = compound: CN1CCN(CC1)C2=CC(=C(C=C2)NC3=NC(=C(S3)C(=O)C4=C(C=CC=C4Cl)Cl)N)OC [XMD14-99] + N=C(N)NC(=N)NCCc1ccccc1 [Phenformin] (partner 250 µM)
Method in brief: (§1)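 Medians of duplicate plates are given as relative viability. That measure is the nuclei count in treated wells divided by the count in vehicle wells. Counts were taken on 4× images of lung cancer cell lines in 1536-well plates, 5 days after pin-tool dosing the day after seeding with one drug alone or a fixed anchor-drug dose plus five library-drug doses (not always all listed) in √10 steps.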

AZD1208 + Trametinib = compound: N[C@@H]1CCCN(c2c(/C=C3\SC(=O)NC3=O)cccc2-c2ccccc2)C1 [AZD1208] + CC(=O)Nc1cccc(-n2c(=O)n(C3CC3)c(=O)c3c(Nc4ccc(I)cc4F)n(C)c(=O)c(C)c32)c1 [Trametinib] (partner 0.02 µM)
Method in brief: as §1

AZD1208 + Pictilisib = compound: N[C@@H]1CCCN(c2c(/C=C3\SC(=O)NC3=O)cccc2-c2ccccc2)C1 [AZD1208] + CS(=O)(=O)N1CCN(Cc2cc3nc(-c4cccc5[nH]ncc45)nc(N4CCOCC4)c3s2)CC1 [Pictilisib] (partner 1 µM)
Method in brief: as §1

AZD1208 + Vorinostat = compound: N[C@@H]1CCCN(c2c(/C=C3\SC(=O)NC3=O)cccc2-c2ccccc2)C1 [AZD1208] + O=C(CCCCCCC(=O)Nc1ccccc1)NO [Vorinostat] (partner 1 µM)
Method in brief: as §1

| Cell Line | relative viability (XMD14-99 + Phenformin; first compound 0.08 µM) | relative viability (XMD14-99 + Phenformin; first compound 0.8 µM) | relative viability (XMD14-99 + Phenformin; first compound 2.53 µM) | relative viability (XMD14-99 + Phenformin; first compound 8 µM) | relative viability (AZD1208 + Trametinib; first compound 0.08 µM) | relative viability (AZD1208 + Trametinib; first compound 0.253 µM) | relative viability (AZD1208 + Trametinib; first compound 0.8 µM) | relative viability (AZD1208 + Trametinib; first compound 2.53 µM) | relative viability (AZD1208 + Trametinib; first compound 8 µM) | relative viability (AZD1208 + Pictilisib; first compound 0.08 µM) | relative viability (AZD1208 + Pictilisib; first compound 0.253 µM) | relative viability (AZD1208 + Pictilisib; first compound 0.8 µM) | relative viability (AZD1208 + Pictilisib; first compound 2.53 µM) | relative viability (AZD1208 + Pictilisib; first compound 8 µM) | relative viability (AZD1208 + Vorinostat; first compound 0.08 µM) | relative viability (AZD1208 + Vorinostat; first compound 0.253 µM) | relative viability (AZD1208 + Vorinostat; first compound 0.8 µM) | relative viability (AZD1208 + Vorinostat; first compound 2.53 µM) | relative viability (AZD1208 + Vorinostat; first compound 8 µM) |
| --- | --- | --- | --- | --- | --- | --- | --- | --- | --- | --- | --- | --- | --- | --- | --- | --- | --- | --- | --- |
| NCI-H1755 | 0.587 | 0.57 | 0.578 | 0.523 | 0.755 | 0.841 | 0.779 | 0.705 | 0.647 | 0.377 | 0.441 | 0.368 | 0.326 | 0.283 | 0.79 | 0.893 | 0.604 | 0.685 | 0.555 |
| NCI-H1793 | 0.367 | 0.337 | 0.249 | 0.288 | 0.356 | 0.566 | 0.33 | 0.473 | 0.342 | 0.362 | 0.212 | 0.257 | 0.385 | 0.276 | 0.841 | 0.949 | 0.752 | 0.954 | 0.713 |
| NCI-H1915 | 0.369 | 0.385 | 0.36 | 0.335 | 0.271 | 0.288 | 0.247 | 0.277 | 0.232 | 0.874 | 0.899 | 0.832 | 0.849 | 0.84 | 0.545 | 0.512 | 0.525 | 0.464 | 0.434 |
| NCI-H1944 | 0.194 | 0.203 | 0.173 | 0.157 | 0.402 | 0.433 | 0.359 | 0.328 | 0.283 | 0.33 | 0.345 | 0.306 | 0.298 | 0.277 | 0.596 | 0.665 | 0.618 | 0.468 | 0.379 |
| NCI-H1975 | 0.379 | 0.41 | 0.325 | 0.317 | 0.304 | 0.341 | 0.283 | 0.36 | 0.249 | 0.285 | 0.252 | 0.242 | 0.28 | 0.238 | 0.708 | 0.799 | 0.705 | 0.735 | 0.767 |
| NCI-H1993 | 0.467 | 0.506 | 0.447 | 0.436 | 0.496 | 0.515 | 0.447 | 0.477 | 0.376 |  | 0.878 | 0.692 | 0.807 | 0.869 | 0.584 | 0.63 | 0.726 | 0.548 | 0.501 |
| NCI-H2009 | 0.482 | 0.442 | 0.331 | 0.251 | 0.264 | 0.249 | 0.256 | 0.224 | 0.207 | 0.725 | 0.811 | 0.75 | 0.553 | 0.714 | 0.747 | 0.777 | 0.698 | 0.788 | 0.67 |
| NCI-H2023 | 0.378 | 0.422 | 0.338 | 0.245 | 0.601 | 0.55 | 0.416 | 0.506 | 0.394 | 0.193 | 0.223 | 0.203 | 0.183 | 0.209 | 0.627 | 0.769 | 0.517 | 0.689 | 0.571 |
| NCI-H2085 | 0.668 | 0.68 | 0.681 | 0.572 | 0.55 | 0.475 | 0.558 | 0.446 | 0.531 | 0.418 | 0.459 | 0.36 | 0.43 | 0.564 | 0.796 | 0.821 | 0.749 | 0.82 | 0.751 |
| NCI-H2087 | 0.445 | 0.408 | 0.346 | 0.2 | 0.219 | 0.167 | 0.159 | 0.227 | 0.193 | 0.665 | 0.842 | 0.654 | 0.561 | 0.732 | 0.789 | 0.795 | 0.752 | 0.73 | 0.406 |
| NCI-H2126 | 0.526 | 0.51 | 0.45 | 0.421 | 0.576 | 0.524 | 0.498 | 0.467 | 0.434 | 0.437 | 0.476 | 0.436 | 0.424 | 0.441 | 0.745 | 0.669 | 0.676 | 0.535 | 0.563 |
| NCI-H2170 | 0.393 | 0.388 | 0.342 | 0.3 | 0.966 | 1 | 0.869 | 0.868 | 0.57 | 0.319 | 0.263 | 0.254 | 0.213 | 0.224 | 0.864 | 0.923 | 0.76 | 0.779 | 0.5 |
| NCI-H2228 | 0.382 | 0.344 | 0.168 | 0.152 | 0.578 | 0.669 | 0.36 | 0.525 | 0.343 | 0.207 | 0.328 | 0.381 |  | 0.285 | 0.647 | 0.624 | 0.793 | 0.448 | 0.464 |
| NCI-H2347 | 0.529 | 0.422 | 0.406 | 0.251 | 0.316 | 0.27 | 0.257 | 0.264 | 0.26 | 0.467 | 0.782 | 0.558 | 0.495 | 0.495 | 0.531 | 0.767 | 0.533 | 0.599 | 0.803 |
| NCI-H2405 | 0.379 | 0.39 | 0.373 | 0.231 | 0.582 | 0.56 | 0.562 | 0.528 | 0.453 | 0.394 | 0.397 | 0.333 | 0.373 | 0.385 | 1.13 | 1.04 | 0.965 | 1.01 | 0.932 |
| NCI-H3122 | 0.372 | 0.361 | 0.291 | 0.237 | 0.201 | 0.221 | 0.192 | 0.203 | 0.165 | 0.506 | 0.486 | 0.447 | 0.481 | 0.524 | 0.97 | 0.943 | 0.924 | 1.05 | 0.524 |
| PC-3 [JPC-3] | 0.494 | 0.505 | 0.517 | 0.47 | 0.732 | 0.825 | 0.688 | 0.711 | 0.723 | 0.788 | 0.762 | 0.672 | 0.659 | 0.684 | 1.13 | 0.746 | 0.857 | 0.909 | 0.926 |
